In ChEMBL document CHEMBL1139379, “Design, structure-activity relationships and in vivo characterization of 4-amino-3-benzimidazol-2-ylhydroquinolin-2-ones: a novel class of receptor tyrosine kinase inhibitors” (J Med Chem, 2009) one finds IC50 and EC50 data, which are given here for 39 molecules.

In experiment [1] the target is Vascular endothelial growth factor receptor 2 (Homo sapiens, UniProt P35968).
The target in experiment [2] is Platelet-derived growth factor receptor beta (Homo sapiens, UniProt P09619). As to the kind of experiment: Inhibition of human recombinant PDGFRbeta.
Experiment [3] deals with Fibroblast growth factor receptor 1 (Homo sapiens, UniProt P11362). As to the kind of experiment: Inhibition of human recombinant FGFR1.
Experiment [4] can be described thus: Inhibition of VEGF-mediated proliferation of HMVEC after 72 hrs. Format: functional, cell-based. Particulars: Homo sapiens.

Platelet-derived growth factor receptor beta, sequence (P09619 whole entry): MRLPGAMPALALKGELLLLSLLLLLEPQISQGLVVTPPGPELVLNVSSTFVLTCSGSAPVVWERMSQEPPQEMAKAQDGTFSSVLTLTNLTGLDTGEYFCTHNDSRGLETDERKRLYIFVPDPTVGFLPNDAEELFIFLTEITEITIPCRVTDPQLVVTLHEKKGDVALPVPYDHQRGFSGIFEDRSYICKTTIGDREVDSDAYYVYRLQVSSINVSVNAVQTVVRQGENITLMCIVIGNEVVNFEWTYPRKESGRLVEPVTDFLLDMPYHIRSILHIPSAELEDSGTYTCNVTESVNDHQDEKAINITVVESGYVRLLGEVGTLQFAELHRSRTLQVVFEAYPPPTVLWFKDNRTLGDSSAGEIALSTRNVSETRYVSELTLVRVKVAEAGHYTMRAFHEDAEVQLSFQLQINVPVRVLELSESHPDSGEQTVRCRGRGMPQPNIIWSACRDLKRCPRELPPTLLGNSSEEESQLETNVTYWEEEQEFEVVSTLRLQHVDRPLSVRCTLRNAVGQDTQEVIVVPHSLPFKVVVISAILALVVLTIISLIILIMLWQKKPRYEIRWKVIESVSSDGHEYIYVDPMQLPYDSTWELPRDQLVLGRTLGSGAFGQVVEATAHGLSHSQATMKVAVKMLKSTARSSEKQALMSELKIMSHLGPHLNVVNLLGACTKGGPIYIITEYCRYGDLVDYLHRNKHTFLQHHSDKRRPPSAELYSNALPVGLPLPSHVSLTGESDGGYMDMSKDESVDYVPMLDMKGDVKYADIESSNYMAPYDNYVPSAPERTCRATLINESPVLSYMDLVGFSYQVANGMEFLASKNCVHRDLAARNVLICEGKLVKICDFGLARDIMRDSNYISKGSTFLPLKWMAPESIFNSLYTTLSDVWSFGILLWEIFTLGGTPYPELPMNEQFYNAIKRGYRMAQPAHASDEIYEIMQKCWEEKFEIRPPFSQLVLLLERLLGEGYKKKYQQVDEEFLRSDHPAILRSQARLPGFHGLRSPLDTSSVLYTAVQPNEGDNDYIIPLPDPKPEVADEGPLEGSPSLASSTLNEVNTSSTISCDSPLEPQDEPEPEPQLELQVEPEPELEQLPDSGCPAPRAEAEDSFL
Vascular endothelial growth factor receptor 2, sequence (P35968 whole entry): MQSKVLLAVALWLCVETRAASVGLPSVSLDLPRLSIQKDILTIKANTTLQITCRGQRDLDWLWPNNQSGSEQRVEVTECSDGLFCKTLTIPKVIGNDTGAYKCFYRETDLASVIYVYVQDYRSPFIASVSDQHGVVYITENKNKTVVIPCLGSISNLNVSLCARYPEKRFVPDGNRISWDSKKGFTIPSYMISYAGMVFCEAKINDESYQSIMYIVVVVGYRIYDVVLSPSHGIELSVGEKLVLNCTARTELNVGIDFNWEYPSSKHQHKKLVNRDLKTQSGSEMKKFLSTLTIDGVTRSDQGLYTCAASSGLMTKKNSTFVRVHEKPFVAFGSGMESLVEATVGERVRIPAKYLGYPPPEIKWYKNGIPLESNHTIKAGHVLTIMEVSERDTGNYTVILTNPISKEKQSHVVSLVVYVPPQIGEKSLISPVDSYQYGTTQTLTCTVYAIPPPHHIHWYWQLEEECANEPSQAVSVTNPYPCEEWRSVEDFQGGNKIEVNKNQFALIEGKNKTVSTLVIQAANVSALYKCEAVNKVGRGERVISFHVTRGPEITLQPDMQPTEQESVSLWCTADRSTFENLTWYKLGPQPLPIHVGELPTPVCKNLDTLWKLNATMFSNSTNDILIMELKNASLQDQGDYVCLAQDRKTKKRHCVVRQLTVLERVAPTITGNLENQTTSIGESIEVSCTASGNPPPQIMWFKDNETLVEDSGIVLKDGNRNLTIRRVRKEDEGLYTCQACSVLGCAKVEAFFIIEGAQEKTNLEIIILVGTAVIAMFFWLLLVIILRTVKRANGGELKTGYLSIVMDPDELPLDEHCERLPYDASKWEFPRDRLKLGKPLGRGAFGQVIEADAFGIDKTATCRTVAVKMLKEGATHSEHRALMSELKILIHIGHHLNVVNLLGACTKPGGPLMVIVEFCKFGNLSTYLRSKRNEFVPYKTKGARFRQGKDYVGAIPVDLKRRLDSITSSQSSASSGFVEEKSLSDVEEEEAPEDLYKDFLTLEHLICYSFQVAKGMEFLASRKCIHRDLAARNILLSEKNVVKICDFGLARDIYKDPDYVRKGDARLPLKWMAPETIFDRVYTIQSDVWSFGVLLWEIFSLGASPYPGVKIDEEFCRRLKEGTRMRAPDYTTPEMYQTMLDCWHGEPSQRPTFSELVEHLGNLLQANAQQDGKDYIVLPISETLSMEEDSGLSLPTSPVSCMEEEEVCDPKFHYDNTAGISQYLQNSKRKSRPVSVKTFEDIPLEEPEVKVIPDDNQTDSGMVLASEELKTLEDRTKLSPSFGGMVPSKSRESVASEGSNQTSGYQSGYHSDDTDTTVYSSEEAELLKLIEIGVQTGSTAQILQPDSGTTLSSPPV
Fibroblast growth factor receptor 1, sequence (P11362 whole entry): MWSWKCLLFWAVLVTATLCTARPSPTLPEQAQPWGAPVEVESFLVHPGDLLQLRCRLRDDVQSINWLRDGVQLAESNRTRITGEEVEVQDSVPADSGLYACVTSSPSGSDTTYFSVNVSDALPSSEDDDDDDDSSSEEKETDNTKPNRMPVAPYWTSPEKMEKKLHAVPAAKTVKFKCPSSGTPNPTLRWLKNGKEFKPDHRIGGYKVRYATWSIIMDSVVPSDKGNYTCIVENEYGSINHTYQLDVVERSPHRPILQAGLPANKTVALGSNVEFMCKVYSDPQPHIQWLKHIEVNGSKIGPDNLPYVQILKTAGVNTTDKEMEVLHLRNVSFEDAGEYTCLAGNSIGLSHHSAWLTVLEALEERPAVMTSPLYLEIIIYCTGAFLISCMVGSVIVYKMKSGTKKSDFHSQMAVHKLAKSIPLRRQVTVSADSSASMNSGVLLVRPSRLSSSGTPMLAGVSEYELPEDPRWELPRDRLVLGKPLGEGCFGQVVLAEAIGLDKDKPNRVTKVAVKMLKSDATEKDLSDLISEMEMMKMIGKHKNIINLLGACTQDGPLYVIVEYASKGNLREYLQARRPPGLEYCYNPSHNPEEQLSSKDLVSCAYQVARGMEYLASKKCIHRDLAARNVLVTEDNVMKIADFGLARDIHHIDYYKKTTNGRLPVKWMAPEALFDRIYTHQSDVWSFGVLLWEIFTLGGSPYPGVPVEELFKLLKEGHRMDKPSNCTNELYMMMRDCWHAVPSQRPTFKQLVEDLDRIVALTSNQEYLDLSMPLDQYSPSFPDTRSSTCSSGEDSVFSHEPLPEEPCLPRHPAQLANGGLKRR

As to `Nc1c(-c2nc3ccccc3[nH]2)c(=O)[nH]c2ccccc12`, the IC50 (as a rule, the concentration at which inhibition is half-maximal) in experiment [1] turned out to be 58 nM; in experiment [2], 10 nM; in experiment [3] it was 30 nM. Moreover, in experiment [4], the EC50 (commonly the midpoint of the concentration-response curve) amounted to 78 nM.

Consider `CN1CCN(Cc2ccc3[nH]c(-c4c(N)c5ccccc5[nH]c4=O)nc3c2)CC1`, for which the figures for the IC50 in experiment [2] and in experiment [3] were 2 nM and 9 nM, respectively.

Consider `CN1CCN(c2ccc3[nH]c(-c4c(N)c5ccccc5[nH]c4=O)nc3c2)CC1`, for which the 50% inhibitory concentration (IC50) in experiment [1] worked out at 42 nM; in experiment [2], 2 nM; in experiment [3] it was 9 nM. Moreover, in experiment [4], the midpoint of the response, the EC50, lay at 19 nM.

As to `CN1CCN(c2ccc3[nH]c(-c4c(N)c5cc(F)c(F)cc5[nH]c4=O)nc3c2)CC1`, the half-inhibitory concentration (IC50) amounted to 190 nM in experiment [1], 3 nM in experiment [2] and 110 nM in experiment [3]. Further, the response in experiment [4] was half-maximal at 480 nM (EC50).

As for `Nc1c(-c2nc3cc(N4CCOCC4)ccc3[nH]2)c(=O)[nH]c2ccccc12`, the values for the IC50 in experiment [1], in experiment [2] and in experiment [3] were 57 nM, 5 nM and 30 nM, respectively. Also, in experiment [4], the EC50 is 51 nM.

As for `Cc1cc2nc(-c3c(N)c4ccccc4[nH]c3=O)[nH]c2cc1C`, the IC50 in experiment [1] came out at 210 nM; in experiment [2] it was 12 nM; in experiment [3], 70 nM. Further, the EC50 in experiment [4] is 150 nM.

With `CNc1c(-c2nc3ccccc3[nH]2)c(=O)[nH]c2ccccc12`, the values for the IC50 in experiment [1], in experiment [2] and in experiment [3] were 220 nM, 30 nM and 120 nM, respectively. Moreover, in experiment [4], the EC50 worked out at 280 nM.

As to `CN1CCN(C(=O)c2ccc3[nH]c(-c4c(N)c5ccccc5[nH]c4=O)nc3c2)CC1`, the IC50 in experiment [1] stood at 26 nM; in experiment [2], 0.9 nM; in experiment [3], 10 nM. The molecule also yielded an EC50 in experiment [4] of 45 nM.

Regarding `CN1CCN(c2ccc3nc(-c4c(N)c5cc(C(=O)NCc6ccccc6)ccc5[nH]c4=O)[nH]c3c2)CC1`, the IC50 in experiment [1] was determined as 50 nM; in experiment [2], 0.1 nM; in experiment [3], 10 nM. The molecule further yielded an EC50 in experiment [4] of 120 nM.

In the case of `O=c1[nH]c2ccccc2c(O)c1-c1nc2ccccc2[nH]1`, the half-inhibitory concentration (IC50) came to 240 nM in experiment [1], 20 nM in experiment [2] and 90 nM in experiment [3]. The EC50 in experiment [4] was 420 nM.

As to `CN1CCN(c2ccc3nc(-c4c(N)c5cc(F)c(N(C)C)cc5[nH]c4=O)[nH]c3c2)CC1`, the values for the half-maximal inhibitory concentration (IC50) in experiment [1], in experiment [2] and in experiment [3] were 5300 nM, 30 nM and 1800 nM, respectively. In experiment [4], this molecule came in with a concentration for a half-maximal effect (EC50) of 3300 nM.

As to `CN1CCN(c2ccc3[nH]c(-c4c(N)c5c(F)cc(F)cc5[nH]c4=O)nc3c2)CC1`, the results for the IC50 in experiment [1], in experiment [2] and in experiment [3] were 130 nM, 5 nM and 30 nM, respectively. For the same molecule, a half-maximal effect in experiment [4] (EC50) was put at 80 nM.

Consider `CN1CCN(c2cccc3[nH]c(=O)c(-c4nc5ccccc5[nH]4)c(N)c23)CC1`, for which the half-maximal inhibitory concentration (IC50) in experiment [1] stood at 17 nM; in experiment [2], 0.3 nM; in experiment [3], 1 nM. The molecule also yielded a concentration giving a half-maximal response (EC50) in experiment [4] of 340 nM.

On to `CNc1cccc2[nH]c(=O)c(-c3nc4ccc(N5CCN(C)CC5)cc4[nH]3)c(N)c12`, for which the IC50 is 53 nM in experiment [1], 2 nM in experiment [2] and 15 nM in experiment [3]. In addition, the response in experiment [4] was half-maximal at 17 nM (EC50).

Take `CN1CCN(c2ccc3nc(-c4c(N)c5cc(NCc6ccccc6)ccc5[nH]c4=O)[nH]c3c2)CC1`: the figures for the concentration for half-maximal inhibition (IC50) in experiment [1], in experiment [2] and in experiment [3] were 21 nM, 0.6 nM and 8 nM, respectively. Also, in experiment [4], a half-maximal effect (EC50) was put at 1100 nM.

`CN1CCN(c2ccc3[nH]c(-c4c(N)c5cccc(F)c5[nH]c4=O)nc3c2)CC1`: the concentration for half-maximal inhibition (IC50) in experiment [1] was 560 nM; in experiment [2], 14 nM; in experiment [3], 190 nM. The same molecule showed an EC50 in experiment [4] of 420 nM.

Take `CN1CCN(c2ccc3nc(-c4c(N)c5cc(F)ccc5[nH]c4=O)[nH]c3c2)CC1`: the 50% inhibitory concentration (IC50) in experiment [1] stood at 78 nM; in experiment [2], 1 nM; in experiment [3], 40 nM. The EC50 in experiment [4] was found to be 10 nM.

For `CN1CCCC(Oc2cccc3[nH]c(=O)c(-c4nc5ccccc5[nH]4)c(N)c23)C1` (configuration not stated), the IC50 amounted to 5 nM in experiment [1], 0.1 nM in experiment [2] and 1 nM in experiment [3]. A half-maximal effect in experiment [4] (EC50) was put at 10 nM.

Regarding `CN1CCN(c2ccc3[nH]c(-c4c(N)c5cc(Cl)ccc5[nH]c4=O)nc3c2)CC1`, the results for the IC50 in experiment [1], in experiment [2] and in experiment [3] were 43 nM, 8 nM and 24 nM, respectively. In experiment [4], it took 39 nM to reach a half-maximal effect (EC50).

Regarding `Cc1ccc2nc(-c3c(N)c4ccccc4[nH]c3=O)[nH]c2c1`, the IC50 was found to be 220 nM in experiment [1], 30 nM in experiment [2] and 80 nM in experiment [3]. Besides, it took 64 nM to reach a half-maximal effect in experiment [4] (EC50).

As to `CN(C)[C@H]1CCN(c2ccc3[nH]c(-c4c(N)c5ccccc5[nH]c4=O)nc3c2)C1`, the results for the half-inhibitory concentration (IC50) in experiment [1], in experiment [2] and in experiment [3] were 60 nM, 4 nM and 20 nM, respectively. The molecule also gave an EC50 in experiment [4] of 42 nM.

As to `CN(C)c1c(-c2nc3ccccc3[nH]2)c(=O)[nH]c2ccccc12`, the IC50 in experiment [1] amounted to 860 nM; in experiment [2], 70 nM; in experiment [3], 390 nM. Moreover, the concentration giving a half-maximal response (EC50) in experiment [4] was more than 10000 nM.

Regarding `Nc1c(-c2nc3ccc(OCCN4CCOCC4)cc3[nH]2)c(=O)[nH]c2ccccc12`, the half-maximal inhibitory concentration (IC50) in experiment [1] worked out at 66 nM; in experiment [2] it was 5 nM; in experiment [3], 20 nM. The same molecule registered an EC50 in experiment [4] of 37 nM.

With `CN(C)CC(=O)N(C)c1ccc2[nH]c(-c3c(N)c4ccccc4[nH]c3=O)nc2c1`, the IC50 was 29 nM in experiment [1], 1 nM in experiment [2] and 3 nM in experiment [3]. For the same molecule, a half-maximal response in experiment [4] (EC50) required 24 nM.

As to `O=c1[nH]c2ccccc2cc1-c1nc2ccccc2[nH]1`, the IC50 in experiment [1] is 1700 nM; in experiment [2], 70 nM; in experiment [3], 390 nM. This molecule also displayed an EC50 in experiment [4] of 240 nM.

As for `CN1CCN(c2ccc3nc(-c4c(N)c5cc(N)ccc5[nH]c4=O)[nH]c3c2)CC1`, the 50% inhibitory concentration (IC50) in experiment [1] stood at 19 nM; in experiment [2], 7 nM; in experiment [3] it was 7 nM. This molecule also displayed an EC50 in experiment [4] of 17 nM.

As for `Cn1c(=O)c(-c2nc3ccccc3[nH]2)c(O)c2ccccc21`, the IC50 in experiment [1] is 5800 nM; in experiment [2], 19000 nM; in experiment [3], more than 25000 nM. The midpoint of the response in experiment [4], the EC50, lay at 4600 nM.

Turning to `CNc1ccc2c(N)c(-c3nc4ccc(N5CCN(C)CC5)cc4[nH]3)c(=O)[nH]c2c1`, the IC50 in experiment [1] was determined as 1000 nM; in experiment [2], 9 nM; in experiment [3], 370 nM. A half-maximal effect in experiment [4] (EC50) was put at 270 nM.

For the molecule `CN1CCCN(c2ccc3[nH]c(-c4c(N)c5ccccc5[nH]c4=O)nc3c2)CC1`, the IC50 in experiment [1] amounted to 66 nM; in experiment [2], 5 nM; in experiment [3] it was 20 nM. This molecule returned an EC50 in experiment [4] of 25 nM.

Turning to `CN1CCN(c2ccc3[nH]c(-c4c(N)c5c(Cl)cccc5[nH]c4=O)nc3c2)CC1`, the IC50 was found to be 14 nM in experiment [1], 0.3 nM in experiment [2] and 2 nM in experiment [3]. The same molecule yielded an EC50 in experiment [4] of 12 nM.

Regarding `CN1CCN(c2ccc3nc(-c4c(N)c5ccc(F)cc5[nH]c4=O)[nH]c3c2)CC1`, the IC50 in experiment [1] was 14 nM; in experiment [2], 0.4 nM; in experiment [3], 3 nM. The molecule also yielded a half-maximal effective concentration (EC50) in experiment [4] of 34 nM.

As for `Cn1c(-c2c(O)c3ccccc3n(C)c2=O)nc2ccccc21`, the IC50 in experiment [1], in experiment [2] and in experiment [3] was more than 25000 nM throughout. In experiment [4], this molecule gave an EC50 of more than 10000 nM.

As to `Cn1c(-c2c(O)c3ccccc3[nH]c2=O)nc2ccccc21`, the half-maximal inhibitory concentration (IC50) was more than 25000 nM in experiment [1], 1100 nM in experiment [2] and 7900 nM in experiment [3]. The same molecule showed an EC50 in experiment [4] of more than 10000 nM.

Take `CN1CCN(c2ccc3[nH]c(-c4c(N)c5cc(N(C)C)ccc5[nH]c4=O)nc3c2)CC1`: the 50% inhibitory concentration (IC50) in experiment [1] was determined as 160 nM; in experiment [2] it was 7 nM; in experiment [3] it was 83 nM. Moreover, the EC50 in experiment [4] is 2000 nM.

For `Cc1cccc2[nH]c(=O)c(-c3nc4ccc(N5CCN(C)CC5)cc4[nH]3)c(N)c12`, the IC50 in experiment [1] was 12 nM; in experiment [2], 0.7 nM; in experiment [3], 3 nM. For the same molecule, the EC50 in experiment [4] was found to be 5 nM.

Consider `CN1CCN(c2ccc3[nH]c(=O)c(-c4nc5ccccc5[nH]4)c(N)c3c2)CC1`, for which the IC50 was determined as 6500 nM in experiment [1], 130 nM in experiment [2] and 4100 nM in experiment [3].

As for `CCC1CCN(C)C(Nc2c(-c3nc4ccccc4[nH]3)c(=O)[nH]c3ccccc23)C1` (configuration not stated), the concentration for half-maximal inhibition (IC50) in experiment [1] stood at 170 nM; in experiment [2], 0.2 nM; in experiment [3], 190 nM. The molecule further showed a 50% effective concentration (EC50) in experiment [4] of 72 nM.

Take `CN1CCN(c2ccc3[nH]c(-c4c(N)c5cc(NC(=O)c6ccccc6)ccc5[nH]c4=O)nc3c2)CC1`: the IC50 in experiment [1] came out at 980 nM; in experiment [2] it was 39 nM; in experiment [3], 900 nM.

In the case of `O=c1[nH]c2ccccc2c(NCC2CCNCC2)c1-c1nc2ccccc2[nH]1`, the half-inhibitory concentration (IC50) in experiment [1] was found to be 940 nM; in experiment [2], 0.9 nM; in experiment [3], 550 nM. The molecule also had an EC50 in experiment [4] of 100 nM.
